19 molecules from patent publication US20140343001A1, “INDOLE DERIVATIVES INHIBITORS OF ENZYME LACTATE DEHYDROGENASE (LDH)” (Universitá di Pisa, priority 2011, published 2014) can be followed below.

In general, IC50 refers to the concentration that inhibits the measured activity by half. The term Ki denotes the equilibrium dissociation constant of an inhibitor or competing ligand from its target.

SMILES strings stand for the structures.

The test system of one assay is H1975. Nature of the assay: Inhibition of tumor cell growth method (b), CellTiter-Glo. In kind it is cell-based. The note with it: Homo sapiens, NCI-H1975, H1975, 72 h. From the text: (§1) CellTiter-Glo® Luminescent Cell Viability Assay (Promega) is a homogeneous method of determining the number of viable cells in culture based on quantitation of the present ATP, which indicates the presence of metabolically active cells. The homogeneous assay procedure involves addition of a single reagent (CellTiter-Glo® Reagent) directly to the cells, which leads to cell lysis and generation of a luminescent signal proportional to the amount of the ATP and the number of cells present in culture. The assay relies on the properties of a proprietary thermostable luciferase (Ultra-Glo® recombinant luciferase), which generates a luminescent signal.
(§2) After 72 h, a volume of CellTiter-Glo® Reagent equal to the volume of cell culture medium was added. The content was mixed for 2 min to induce cell lysis. The luminescence was recorded after further 10 min at RT in order to obtain a stable luminescent signal.
(§3) The IC50 was calculated using GraphPad Software.
On the technique in general: Cellular ATP, detected with luciferase, serves as a proxy for viable cell number.

A further assay has as its system A549 cells. The description is as above. The format is cell-based. The settings on record: Homo sapiens, A549, 72 h.
Description: as §1, §2, §3

Another assay deals with T1, hLDH5 (LDH-A) (Homo sapiens, UniProt P00338).
T1 construct: purchased LEEBIO (USA)
Put plainly: Enzyme inhibition of human lactate dehydrogenase isoform 5. In kind it is biochemical. The note with it: ranges of values, pH 7.4; for Ki: 37° C., read-out: inhibitory activity against hLDH5 (Ki); for IC50: room temperature, read-out: inhibitory activity against hLDH5 (IC50). The method, then:
The compounds described in the examples were evaluated in enzymatic assays to assess its inhibitory properties against two human isoforms of lactate dehydrogenase, hLDH5 containing solely the subunit LDH-A (LEEBIO—USA), and the hLDH1 containing only the LDH subunits-B (Sigma Aldrich, USA), in order to verify the selectivity of these compounds.
(for Ki measurements). Such assays were conducted in cells containing 200 μL of a solution comprising the reagents dissolved in phosphate buffer (KH2PO4 and K2HPO4) at pH 7.4.
IC50 values were calculated as described below. […] Seven different concentrations (in duplicate for each concentration) of compound were used to generate a concentration-response curve. […] Compound solutions were dispensed in 96-well plates (8 μL), then substrate and cofactor dissolved in buffer (152 μl) and enzyme solution (40 μl) were finally added. Dilution of the enzyme stock solution was made to allow a 10% consumption of the cofactor after 15 min. The eventual background fluorescence of the tested compounds or quenching of the NADH fluorescence by the tested compounds was subtracted. In addition to the compound test wells, each plate contained maximum and minimum controls. Assay plates were incubated at room temperature for 15 min and the final measurements were performed using Victor X3 Microplates reader (PerkinElmer®) at a fluorescence emission wavelength of 460 nm (excitation at 340 nm). IC50 were generated using the curve-fitting tool of GraphPad Prism].
The resulting data of enzymatic kinetic (the constants of Michaelis-Menten) were determined by analysis of non-linear regression.

The test system of the next assay is HeLa cells. Nature of the assay: Determination of cellular production of lactate (GC/MS). The settings on record: 8 hours, concentrations from 50 to 200 μM, comparable or superior to 2-DeoxGlu at 10 mM. In kind it is cell-based.
The next assay relates to HeLa. Nature of the assay: Inhibition of tumor cell growth method (a), sulforhodamine B assay. The note with it: Homo sapiens, 72 hours, SRB. In kind it is cell-based. As for the experimental part:
(§4) The plates were incubated at 37° C. in an atmosphere composed of 95% air and 5% CO2 for 72 hours. The culture medium was then removed and the cells were fixed by addition of 50 μL of a 10% solution of trichloroacetic acid in water at 4° C. in each well. The plates were incubated at 4° C. for at least one hour, after which the colorimetric assay of sulforhodamine B (SRB) was carried out to determine the amount of biomass remaining in each well as described in previously developed methodologies [Vichai, V.; Kirtikara, K. Nat. Protoc. […] Briefly, the plates were washed several times with water and dried prior to the addition of 50 μL of a solution of dye sulforhodamine B (composed by 0.057% weight/weight of sulforhodamine B in 1% acetic acid) to each well. After 30 minutes of incubation, the unbound dye was removed by washing six times with 1% acetic acid. […] After an incubation period of 30 minutes, the absorbance in each well was read at a wavelength of 510 nm in a microplate reader. The cells treated only with vehicle consisting of a 1% solution of DMSO (vehicle) were used as control of 100% of live cells in the biomass and the wells incubated with the vehicle alone (without cells) were used to determine the baseline (0%) of live biomass. The IC50 values were calculated using the software SoftMax Pro (Molecular Devices, Sunnyvale, Calif.).
In general terms: Sulforhodamine B stains cellular protein and so reports cell mass.

The next assay deals with MCF-7. Described as above. In kind it is cell-based. The note with it: Homo sapiens, MCF7; MCF-7, 72 hours, SRB. As for the experimental part:
as §4

In the case of `CCOC(=O)c1cc2c(C(F)(F)F)cc(-c3ccc(Cl)cc3Cl)cc2n1O` [Example 9, ethyl 6-(2,4-dichloropheyl)-1-hydroxy-4-(trifluoromethyl)-1H-indole-2-carboxylate], the 50% inhibitory concentration (IC50) in the assay on H1975 and in the assay on A549 cells was at most 31 µM each time. Besides, the inhibitory constant (Ki) at hLDH5 (LDH-A) lay in the range of 1 to 10 µM. The “reduction of cellular production of lactate” value (“reduction” below) in the assay with HeLa cells is recorded as “reduce effectively cellular production of lactate”.

On to `COC(=O)c1cc2c(C(F)(F)F)cc(-c3ccc(Cl)cc3Cl)cc2n1O[C@@H]1O[C@H](CO)[C@@H](O)[C@H](O)[C@H]1O` [Example 10, methyl 6-(2,4-dichlorophenyl)-1-(β-D-glucopyranosyl)oxy-4-(trifluoromethyl)-1H-indole-2-carboxylate], for which the half-maximal inhibitory concentration (IC50) on hLDH5 (LDH-A) is 50 to 500 µM; in the assay on HeLa, under 15 µM; in the assay on MCF-7, under 17 µM.

For the molecule `COC(=O)c1cc2c(C(F)(F)F)cc(-c3cccc(OC(F)(F)F)c3)cc2n1O` [Example 19, methyl 1-hydroxy-4-(trifluoromethyl)-6-(3-(trifluoromethoxy)phenyl)-1H-indole-2-carboxylate], the IC50 in the assay on H1975 and in the assay on A549 cells was at most 31 µM throughout. In addition, the Ki on hLDH5 (LDH-A) fell in the range of 1 to 10 µM.

Turning to `CCCCOC(=O)c1cc2c(C(F)(F)F)cc(-c3ccccc3)cc2n1O` [Example 22, butyl 1-hydroxy-6-phenyl-4-(trifluoromethyl)-1H-indole-2-carboxylate], the IC50 in the assay with H1975 and in the assay with A549 cells was at most 31 µM each time. Moreover, the Ki on hLDH5 (LDH-A) lay within 0.5 to 5 µM. Moreover, the “reduction” value in the assay on HeLa cells was “reduce effectively cellular production of lactate”.

In the case of `CC(C)OC(=O)c1cc2c(C(F)(F)F)cc(-c3ccccc3)cc2n1O` [Example 23, isopropyl 1-hydroxy-6-phenyl-4-(trifluoromethyl)-1H-indole-2-carboxylate], the IC50 in the assay with H1975 and in the assay with A549 cells was at most 31 µM in each case. The Ki at hLDH5 (LDH-A) was in the range of 1 to 10 µM. In the assay with HeLa cells, the “reduction” value is listed as “reduce effectively cellular production of lactate”.

For the molecule `O=C(O)c1cc2c(C(F)(F)F)cc(-c3cccc(OC(F)(F)F)c3)cc2n1O` [Example 25, 1-hydroxy-4-(trifluoromethyl)-6-(3-(trifluoromethoxy)phenyl)-1H-indole-2-carboxylic acid], the IC50 in the assay on A549 cells was at most 31 µM. For the same molecule, the Ki on hLDH5 (LDH-A) fell in the range of 1 to 10 µM.

With `CC(C)OC(=O)c1cc2c(C(F)(F)F)cc(-c3ccccc3)cc2n1O[C@@H]1O[C@H](CO)[C@@H](O)[C@H](O)[C@H]1O` [Example 31, isopropyl 1-(β-D-glucopyranosyl)oxy-6-phenyl-4-(trifluoromethyl)-1H-indole-2-carboxylate], the IC50 on hLDH5 (LDH-A) fell in the range of 50 to 500 µM. Besides, the “reduction” value in the assay with HeLa cells was “reduce effectively cellular production of lactate”.

Consider `CC(C)OC(=O)c1cc2c(C(F)(F)F)cc(-c3ccc(Cl)cc3Cl)cc2n1O` [Example 32, isopropyl 6-(2,4-dichlorophenyl)-1-hydroxy-4-(trifluoromethyl)-1H-indole-2-carboxylate], for which the IC50 with H1975 and in the assay with A549 cells was at most 31 µM in each case. For the same molecule, at hLDH5 (LDH-A), the Ki was in the range of 0.5 to 5 µM. In addition, in the assay on HeLa cells, the “reduction” value is on record as “reduce effectively cellular production of lactate”.

Consider `CCCCOC(=O)c1cc2c(C(F)(F)F)cc(-c3ccc(Cl)cc3Cl)cc2n1O` [Example 33, butyl 6-(2,4-dichlorophenyl)-1-hydroxy-4-(trifluoromethyl)-1H-indole-2-carboxylate], for which, on hLDH5 (LDH-A), the IC50 lay within 0.01 to 1 µM. Further, in the assay with HeLa cells, the “reduction” value was “reduce effectively cellular production of lactate”.

Regarding `COC(=O)c1cc2c(C(F)(F)F)cc(-c3ccccc3OC(F)(F)F)cc2n1O` [Example 34, methyl 1-hydroxy-6-(2-(trifluoromethoxy)phenyl)-4-(trifluoromethyl)-1H-indole-2-carboxylate], the IC50 with H1975 and in the assay with A549 cells was at most 31 µM in each case. For the same molecule, the inhibition constant Ki at hLDH5 (LDH-A) lay in the range of 5 to 25 µM.

Consider `O=C(O)c1cc2c(C(F)(F)F)cc(-c3ccccc3OC(F)(F)F)cc2n1O` [Example 35, 1-hydroxy-6-(2-(trifluoromethoxy)phenyl)-4-(trifluoromethyl)-1H-indole-2-carboxylic acid], for which the half-maximal inhibitory concentration (IC50) in the assay with H1975 and in the assay with A549 cells was at most 31 µM in each case. Moreover, on hLDH5 (LDH-A), the Ki lay in the range of 5 to 25 µM.

As to `COC(=O)c1cc2c(C(F)(F)F)cc(-c3cccc(Cl)c3Cl)cc2n1O` [Example 36, methyl 6-(2,3-dichlorophenyl)-1-hydroxy-4-(trifluoromethyl)-1H-indole-2-carboxylate], the half-maximal inhibitory concentration (IC50) with H1975 and in the assay on A549 cells was at most 31 µM in each case. Further, at hLDH5 (LDH-A), the inhibitory constant (Ki) was 1 to 10 µM.

As for `COC(=O)c1cc2c(C(F)(F)F)cc(-c3cc(Cl)ccc3Cl)cc2n1O` [Example 38, methyl 6-(2,5-dichlorophenyl)-1-hydroxy-4-(trifluoromethyl)-1H-indole-2-carboxylate], the half-maximal inhibitory concentration (IC50) in the assay on H1975 and with A549 cells was at most 31 µM throughout. Also, the inhibitory constant (Ki) at hLDH5 (LDH-A) is 5 to 25 µM.

Take `COC(=O)c1cc2c(C(F)(F)F)cc(-c3ccccc3)cc2n1O[C@@H]1O[C@H](CO)[C@H](O)[C@@H](O)[C@H]1O` [Example 40, methyl 1-(β-d-gulopyranosyl)oxy-6-phenyl-4-(trifluoromethyl)-1H-indole-2-carboxylate]: in the assay on HeLa cells, the “reduction” value is given as “reduce effectively cellular production of lactate”.

Regarding `COC(=O)c1cc2c(C(F)(F)F)cc(-c3ccccc3)cc2n1O[C@H]1O[C@H](CO)[C@@H](O)[C@H](O)[C@@H]1O` [Example 41, methyl 1-(α-d-mannopyranosyl)oxy-6-phenyl-4-(trifluoromethyl)-1H-indole-2-carboxylate], in the assay on HeLa cells, the “reduction” value is on record as “reduce effectively cellular production of lactate”.

Turning to `COC(=O)c1cc2c(C(F)(F)F)cc(-c3cc(Cl)cc(Cl)c3)cc2n1O` [Example 42, methyl 6-(3,5-dichlorophenyl)-1-hydroxy-4-(trifluoromethyl)-1H-indole-2-carboxylate], the half-inhibitory concentration (IC50) in the assay with H1975 and in the assay on A549 cells was at most 31 µM in each case. Moreover, the inhibition constant Ki on hLDH5 (LDH-A) lay within 1 to 10 µM.

On to `O=C(O)c1cc2c(C(F)(F)F)cc(-c3cc(Cl)cc(Cl)c3)cc2n1O` [Example 43, 6-(3,5-dichlorophenyl)-1-hydroxy-4-(trifluoromethyl)-1H-indole-2-carboxylic acid], for which the IC50 in the assay with A549 cells is at most 31 µM. Moreover, the inhibition constant Ki on hLDH5 (LDH-A) lay in the range of 1 to 10 µM.

With `O=C(OCc1ccccc1)c1cc2c(C(F)(F)F)cc(-c3ccccc3)cc2n1O` [Example 48, benzyl 1-hydroxy-6-phenyl-4-(trifluoromethyl)-1H-indole-2-carboxylate], the half-maximal inhibitory concentration (IC50) in the assay with H1975 and with A549 cells was at most 31 µM throughout. Further, the Ki at hLDH5 (LDH-A) lay within 0.5 to 5 µM.

As for `COC(=O)c1cc2c(F)cc(-c3ccc(Cl)cc3Cl)cc2n1O` [Example 53, methyl 6-(2,4-dichlorophenyl)-4-fluoro-1-hydroxy-1H-indole-2-carboxylate], the IC50 with H1975 and in the assay with A549 cells was at most 31 µM in each case. For the same molecule, at hLDH5 (LDH-A), the inhibition constant Ki is 5 to 25 µM.
